Reference: patent publication US20190225650A1, “PEPTIDOMIMETIC MACROCYCLES AND USE THEREOF IN REGULATING HIF1ALPHA” (AILERON THERAPEUTICS, INC., priority 2013, published 2019)
Bridge positions count the residues as written; N and C are the ends. Square brackets hold non-standard residues; d marks the D form. Peptide text beside a SMILES is read from it. R8 = C=CCCCCCC[C@@](C)(N)C(=O)O; S5 = C=CCCC[C@](C)(N)C(=O)O; Nle = CCCC[C@H](N)C(=O)O

Legend:
[1] = biological target: T1, flag-tagged HIF1α (AA 786-826) / His6-tagged p300 (AA 323-423) complex (Homo sapiens, UniProt Q09472); assay: HIF1α p300 displacement assay (TR FRET, +CHAPS); format: binding; conditions: read-out: IC50 (nM) (HIF1α_p300 Displacement + CHAPS)
T1 construct: His6-tagged p300 (AA 323-423); made in house; host or cells: E. coli (pETDuet vector)
Method in brief: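 In this TR-FRET displacement format, peptides compete HIF1α C-terminal transactivation domain off p300-CH. They were preincubated 1 h at room temperature with 300 nM complex in HEPES pH 7.4/NaCl buffer with 7.5 mM CHAPS and 1 mM DTT. Anti-His-D2 (4 nM) and anti-Flag-K (0.5 μM) followed for 2 h, and a one-site fit of the fluorescence ratio gave IC50.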

HRE-bla ME-180 cells [2] = assay: Reporter gene assay (HRE-bla ME-180 HIF reporter, GeneBLAzer); format: cell-based, human; conditions: for EC50: 24 hour normoxia
Method in brief: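 A FRET β-lactamase readout of HIF transcription was used. After compound treatment in 0.3% DMSO/media under normoxic conditions, 20 μl of 6× LiveBLAzer-FRET B/G (CCF4-AM) substrate was added. Plates sat 3 hr at room temperature in the dark and were read at 409 Ex/460Em and 409Ex/530Em on a Synergy 2. Inhibition was compared against DMSO vehicle controls, with chetomin as positive control.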

HRE-bla ME-180 cells [3] = assay: Cell proliferation assay (viability, MTT, 1% FBS); format: cell-based, human
Method in brief: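 Viable cell number was measured with the CellTiter 96 (MTT) kit after compounds were applied for a 16 h normoxic (21% O2) pretreatment, followed by further normoxic or hypoxic (1% O2) culture. Cells: 2×10^4 ME-180 per well, Opti-MEM + 1% FBS, 0.5% DMSO vehicle.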

SMILES	IC50 [1]	18 h Avg % max inhibition at top conc (HIF Rptr-24 hrs normoxia) (μM) (HRE-bla ME-180 cells [2])	EC50 (HRE-bla ME-180 cells [2])	Viability 1% FBS AVG (MTT V3-24 hr Normoxia) (μM) (HRE-bla ME-180 cells [3])
CCCC[C@H](NC(=O)[C@H](CCC(=O)O)NC(=O)[C@@H](NC(=O)[C@@H](NC(=O)[C@H](C)NC(=O)[C@]1(C)CCCC=CCCC[C@](C)(NC(=O)[C@H](CCC(=O)O)NC(=O)[C@H](CC(=O)O)NC(=O)[C@@H](NC(=O)[C@H](Cc2ccccc2)NC(C)=O)[C@@H](C)CC)C(=O)N[C@@H](C(C)C)C(=O)N[C@@H](CC(C)C)C(=O)N[C@@H](CCCC)C(=O)N1)C(C)C)[C@@H](C)CC)C(=O)N[C@@H](C)C(=O)N[C@@H](CC(C)C)C(N)=O [SP-142] (Ac-FIDE[S5]VL[Nle][S5]AVIE[Nle]AL-NH2; staple 5-9)	400 to 700 nM	+++ (≤25 but <50: +++)	> 30 µM	++++ (≥30: ++++)
CC[C@H](C)[C@H](NC(=O)[C@H](CCCNC(=N)N)NC(=O)[C@H](CC(=O)O)NC(=O)[C@H](CC(C)C)NC(=O)[C@H](C)NC(=O)[C@H](CCSC)NC(=O)[C@H](CCC(=O)O)NC(=O)[C@@H](NC(=O)[C@@H](NC(=O)[C@H](CC(C)C)NC(=O)[C@]1(C)CCCC=CCCC[C@](C)(NC(=O)[C@H](CCC(=O)O)NC(=O)[C@H](CC(=O)O)NC(=O)[C@@H](NC(=O)[C@H](Cc2ccccc2)NC(C)=O)[C@@H](C)CC)C(=O)N[C@@H](C(C)C)C(=O)N[C@@H](CC(C)C)C(=O)N[C@@H](CCSC)C(=O)N1)C(C)C)[C@@H](C)CC)C(N)=O [SP-108] (Ac-FIDE[S5]VLM[S5]LVIEMALDRI-NH2; staple 5-9)	≤ 200 nM	++ (≤10 but <25: ++)	> 30 µM	++++ (≥30: ++++)
CCCC[C@@H]1NC(=O)[C@H](CC(C)C)NC(=O)[C@H](C(C)C)NC(=O)[C@@](C)(NC(=O)[C@H](CCC(=O)O)NC(=O)[C@H](CC(=O)O)NC(=O)[C@@H](NC(=O)[C@H](Cc2ccccc2)NC(C)=O)[C@@H](C)CC)CCCC=CCCC[C@@](C)(C(=O)N[C@@H](CC(C)C)C(=O)N[C@H](C(=O)N[C@H](C(=O)N[C@@H](CCC(=O)O)C(=O)N[C@@H](CCC(N)=O)C(=O)N[C@@H](C)C(=O)N[C@@H](CC(C)C)C(N)=O)[C@@H](C)CC)C(C)C)NC1=O [SP-146] (Ac-FIDE[S5]VL[Nle][S5]LVIEQAL-NH2; staple 5-9)	> 700 nM	+++ (≤25 but <50: +++)	> 30 µM	++++ (≥30: ++++)
CCCC[C@H](NC(=O)[C@]1(C)CCCC=CCCCCCC[C@@](C)(NC(=O)[C@H](CCC(=O)O)NC(=O)[C@H](CCC(=O)O)NC(=O)[C@H](CC(=O)O)NC(=O)[C@@H](NC(=O)[C@H](CC(N)=O)NC(=O)[C@@H](NC(=O)[C@H](CCC(N)=O)NC(=O)[C@H](CC(=O)O)NC(=O)[C@H](CC(C)C)NC(=O)[C@H](C)NC(=O)[C@H](CCCNC(=N)N)NC(=O)[C@H](CC(C)C)NC(=O)[C@H](CC(C)C)NC(=O)[C@H](CCC(=O)O)NC(=O)[C@H](CCC(=O)O)NC(=O)CNC(=O)[C@H](CCC(N)=O)NC(=O)[C@H](CC(C)C)NC(=O)[C@H](CC(C)C)NC(C)=O)C(C)C)[C@@H](C)CC)C(=O)N[C@@H](CC(C)C)C(=O)N[C@@H](CCCC)C(=O)N[C@@H](CO)C(=O)N[C@@H](CC(C)C)C(=O)N[C@@H](C(C)C)C(=O)N[C@@H]([C@@H](C)CC)C(=O)N1)C(N)=O [SP-337] (Ac-LLQGEELLRALDQVNIDEE[R8]L[Nle]SLVI[S5][Nle]-NH2; staple 20-27)	400 to 700 nM	+ (<10: +)	> 30 µM	++++ (≥30: ++++)
CCCC[C@H](NC(=O)[C@H](CCC(=O)O)NC(=O)[C@]1(C)CCCC=CCCCCCC[C@@](C)(NC(=O)[C@H](CCC(=O)O)NC(=O)[C@H](CC(=O)O)NC(=O)[C@@H](NC(=O)[C@H](CC(N)=O)NC(=O)[C@@H](NC(=O)[C@]2(C)CCCC=CCCCCCC[C@@](C)(NC(=O)[C@H](CCC(=O)O)NC(=O)CNC(=O)[C@H](CCC(N)=O)NC(=O)[C@H](CC(C)C)NC(=O)[C@H](CC(C)C)NC(C)=O)C(=O)N[C@@H](CC(C)C)C(=O)N[C@@H](CC(C)C)C(=O)N[C@@H](CCCNC(=N)N)C(=O)N[C@@H](C)C(=O)N[C@@H](CC(C)C)C(=O)N[C@@H](CC(=O)O)C(=O)N2)C(C)C)[C@@H](C)CC)C(=O)N[C@@H](C(C)C)C(=O)N[C@@H](CC(C)C)C(=O)N[C@@H](CCCC)C(=O)N[C@@H](CO)C(=O)N[C@@H](CC(C)C)C(=O)N[C@@H](C(C)C)C(=O)N1)C(=O)NCC(N)=O [SP-313] (Ac-LLQGE[R8]LLRALD[S5]VNIDE[R8]VL[Nle]SLV[S5]E[Nle]G-NH2; staple 6-13, 19-26)	200 to 400 nM	+ (<10: +)	> 30 µM	++++ (≥30: ++++)
CCCC[C@H](NC(=O)[C@H](Cc1ccccc1)NC(=O)[C@@H](NC(=O)[C@H](C)NC(=O)[C@H](CCC(N)=O)NC(=O)[C@H](CC(=O)O)NC(=O)[C@@H](NC(=O)[C@H](Cc1ccccc1)NC(C)=O)[C@@H](C)CC)C(C)C)C(=O)N[C@@]1(C)CCCC=CCCC[C@@](C)(C(=O)N[C@@H](CCC(N)=O)C(=O)N[C@@H](C)C(=O)N[C@@H](CC(C)C)C(=O)N[C@@H](CC(C)C)C(N)=O)NC(=O)[C@H]([C@@H](C)CC)NC(=O)[C@H](C(C)C)NC(=O)[C@H](Cc2c[nH]cn2)NC1=O [SP-260] (Ac-FIDQAVF[Nle][S5]HVI[S5]QALL-NH2; staple 9-13)	> 700 nM	++++ (≥50: ++++)	≤ 5 µM	+ (<5: +)
CCCC[C@H](NC(=O)[C@H](C)NC(=O)[C@]1(C)CCCC=CCCCCCC[C@@](C)(NC(=O)[C@H](CCC(=O)O)NC(=O)[C@H](CC(=O)O)NC(=O)[C@@H](NC(=O)[C@H](Cc2ccccc2)NC(C)=O)[C@@H](C)CC)C(=O)N[C@@H](C(C)C)C(=O)N[C@@H](CC(C)C)C(=O)N[C@@H](CCCC)C(=O)N[C@@H](CO)C(=O)N[C@@H](CC(C)C)C(=O)N[C@@H](C(C)C)C(=O)N1)C(=O)N[C@@H](C)C(=O)N[C@@H](CC(C)C)C(N)=O [SP-196] (Ac-FIDE[R8]VL[Nle]SLV[S5]A[Nle]AL-NH2; staple 5-12)	200 to 400 nM	++++ (≥50: ++++)	≤ 5 µM	++++ (≥30: ++++)
CC[C@H](C)[C@H](NC(=O)[C@H](CCCNC(=N)N)NC(=O)[C@H](CC(=O)O)NC(=O)[C@H](CC(C)C)NC(=O)[C@H](C)NC(=O)[C@H](CCSC)NC(=O)[C@]1(C)CCCC=CCCC[C@](C)(NC(=O)[C@H](CCSC)NC(=O)[C@H](Cc2ccccc2)NC(=O)[C@@H](NC(=O)[C@H](CCC(=O)O)NC(=O)[C@H](CCC(=O)O)NC(=O)[C@H](CC(=O)O)NC(=O)[C@@H](NC(=O)[C@H](Cc2ccccc2)NC(C)=O)[C@@H](C)CC)C(C)C)C(=O)N[C@@H](CC(C)C)C(=O)N[C@@H](C(C)C)C(=O)N[C@@H]([C@@H](C)CC)C(=O)N1)C(N)=O [SP-264] (Ac-FIDEEVFM[S5]LVI[S5]MALDRI-NH2; staple 9-13)	400 to 700 nM	++ (≤10 but <25: ++)	15 to 30 µM	++++ (≥30: ++++)
CCCC[C@H](NC(=O)[C@H](CCC(=O)O)NC(=O)[C@@H](NC(=O)[C@@H](NC(=O)[C@H](CC(C)C)NC(=O)[C@]1(C)CCCC=CCCC[C@](C)(NC(=O)[C@H](CCC(=O)O)NC(=O)[C@H](CC(=O)O)NC(=O)[C@@H](NC(=O)[C@H](CC(N)=O)NC(=O)[C@@H](NC(=O)[C@]2(C)CCCC=CCCCCCC[C@@](C)(NC(=O)[C@H](CCC(=O)O)NC(=O)CNC(=O)[C@H](CCC(N)=O)NC(=O)[C@H](CC(C)C)NC(=O)[C@H](CC(C)C)NC(C)=O)C(=O)N[C@@H](CC(C)C)C(=O)N[C@@H](CC(C)C)C(=O)N[C@@H](CCCNC(=N)N)C(=O)N[C@@H](C)C(=O)N[C@@H](CC(C)C)C(=O)N[C@@H](CC(=O)O)C(=O)N2)C(C)C)[C@@H](C)CC)C(=O)N[C@@H](C(C)C)C(=O)N[C@@H](CC(C)C)C(=O)N[C@@H](CCCC)C(=O)N1)C(C)C)[C@@H](C)CC)C(=O)NCC(N)=O [SP-328] (Ac-LLQGE[R8]LLRALD[S5]VNIDE[S5]VL[Nle][S5]LVIE[Nle]G-NH2; staple 6-13, 19-23)	≤ 200 nM	+ (<10: +)	> 30 µM	++++ (≥30: ++++)
CCCC[C@H](NC(=O)[C@H](Cc1ccccc1)NC(=O)[C@@H](NC(=O)[C@H](CCC(=O)O)NC(=O)[C@H](CCC(=O)O)NC(=O)[C@H](CC(=O)O)NC(C)=O)C(C)C)C(=O)N[C@@]1(C)CCCC=CCCC[C@@](C)(C(=O)N[C@@H](CCCC)C(=O)N[C@@H](C)C(=O)N[C@@H](CC(C)C)C(=O)N[C@@H](CC(C)C)C(N)=O)NC(=O)[C@H]([C@@H](C)CC)NC(=O)[C@H](C(C)C)NC(=O)[C@H](CC(C)C)NC1=O [SP-244] (Ac-DEEVF[Nle][S5]LVI[S5][Nle]ALL-NH2; staple 7-11)	> 700 nM	++++ (≥50: ++++)	≤ 5 µM	++++ (≥30: ++++)
